Results from the NIST ThermoML archive (doi:10.1021/je050001c).
Structures can show the parent of a compound that is named as a salt. Numbers after ± are expanded uncertainties.

Details: 101.33 kPa, Liquid; for viscosity: Falling or rolling sphere viscometry

CCOC(C)=O [ethyl acetate]
Details | mass density [kg/m3] | viscosity [mPa·s]
293.15 K | 900.48 ± 2.9 | 0.443 ± 0.009
298.15 K | 894.81 ± 3 | 0.421 ± 0.009
303.15 K | 887.14 ± 3.1 | 0.399 ± 0.009
308.15 K | 882.21 ± 3.2 | 0.381 ± 0.009
313.15 K | 878.92 ± 3.3 | 0.363 ± 0.009
318.15 K | 874.51 ± 3.4 | 0.346 ± 0.008
323.15 K | 870.39 ± 3.4 | 0.33 ± 0.008
328.15 K | 867.13 ± 3.5 | 0.315 ± 0.008
333.15 K | 864.72 ± 3.5 | 0.301 ± 0.008
338.15 K | 861.41 ± 3.6 | 0.288 ± 0.008
343.15 K | 858.36 ± 3.6 | 0.275 ± 0.008

CCOC(=O)C(C)CC (stereo unspecified) [ethyl 2-methylbutanoate]
Details | mass density [kg/m3] | viscosity [mPa·s]
293.15 K | 869.73 ± 7.4 | 0.831 ± 0.011
298.15 K | 865 ± 7.4 | 0.774 ± 0.01
303.15 K | 861.48 ± 7.5 | 0.723 ± 0.01
308.15 K | 857.88 ± 7.5 | 0.677 ± 0.01
313.15 K | 853.41 ± 7.5 | 0.635 ± 0.01
318.15 K | 849.32 ± 7.5 | 0.597 ± 0.01
323.15 K | 846.74 ± 7.5 | 0.563 ± 0.009
328.15 K | 841.59 ± 7.5 | 0.532 ± 0.009
333.15 K | 838.41 ± 7.5 | 0.503 ± 0.009
338.15 K | 835.48 ± 7.6 | 0.476 ± 0.009
343.15 K | 831.46 ± 7.6 | 0.452 ± 0.009

CC/C=C\CCOC(=O)C(C)C [cis-3-hexenyl isobutyrate]
Details | mass density [kg/m3] | viscosity [mPa·s]
293.15 K | 885.08 ± 3.6 | 1.024 ± 0.023
298.15 K | 878.12 ± 3.7 | 0.941 ± 0.021
303.15 K | 873.61 ± 3.8 | 0.868 ± 0.02
308.15 K | 870.34 ± 3.8 | 0.804 ± 0.018
313.15 K | 865.22 ± 3.9 | 0.741 ± 0.017
318.15 K | 861.49 ± 4 | 0.69 ± 0.016
323.15 K | 857.38 ± 4 | 0.65 ± 0.016
328.15 K | 852.44 ± 4.1 | 0.606 ± 0.015
333.15 K | 848.44 ± 4.1 | 0.56 ± 0.014
338.15 K | 845.31 ± 4.2 | 0.535 ± 0.014
343.15 K | 840.09 ± 4.3 | 0.503 ± 0.013

CCOC(=O)CC(C)C [ethyl 3-methylbutanoate]
Details | mass density [kg/m3] | viscosity [mPa·s]
293.15 K | 866.23 ± 6.5 | 0.805 ± 0.011
298.15 K | 864.01 ± 6.5 | 0.752 ± 0.011
303.15 K | 860.12 ± 6.5 | 0.703 ± 0.011
308.15 K | 855.98 ± 6.5 | 0.659 ± 0.01
313.15 K | 851.79 ± 6.6 | 0.62 ± 0.01
318.15 K | 847.39 ± 6.6 | 0.581 ± 0.01
323.15 K | 846.24 ± 6.6 | 0.544 ± 0.01
328.15 K | 842.35 ± 6.6 | 0.516 ± 0.009
333.15 K | 840.07 ± 6.6 | 0.485 ± 0.009
338.15 K | 836.31 ± 6.7 | 0.457 ± 0.009
343.15 K | 833.62 ± 6.7 | 0.431 ± 0.009

CCCCCC(=O)OCC [ethyl hexanoate]
Details | mass density [kg/m3] | viscosity [mPa·s]
293.15 K | 879.01 ± 3.3 | 0.816 ± 0.011
298.15 K | 872.53 ± 3.4 | 0.757 ± 0.011
303.15 K | 869.31 ± 3.5 | 0.704 ± 0.011
308.15 K | 866.74 ± 3.5 | 0.656 ± 0.01
313.15 K | 863.28 ± 3.6 | 0.614 ± 0.01
318.15 K | 860.19 ± 3.6 | 0.576 ± 0.01
323.15 K | 856.42 ± 3.7 | 0.541 ± 0.01
328.15 K | 851.93 ± 3.8 | 0.509 ± 0.009
333.15 K | 847.88 ± 3.8 | 0.482 ± 0.009
338.15 K | 845.32 ± 3.9 | 0.456 ± 0.009
343.15 K | 841.46 ± 4 | 0.429 ± 0.009

CCCCOC(=O)CCC [butyl butanoate]
Details | mass density [kg/m3] | viscosity [mPa·s]
293.15 K | 872.45 ± 3.4 | 0.948 ± 0.011
298.15 K | 869.14 ± 3.5 | 0.876 ± 0.011
303.15 K | 866.1 ± 3.5 | 0.812 ± 0.011
308.15 K | 862.19 ± 3.6 | 0.755 ± 0.01
313.15 K | 858.94 ± 3.6 | 0.705 ± 0.01
318.15 K | 854.31 ± 3.7 | 0.659 ± 0.01
323.15 K | 851.47 ± 3.8 | 0.618 ± 0.01
328.15 K | 848.01 ± 3.8 | 0.581 ± 0.009
333.15 K | 846.22 ± 3.8 | 0.548 ± 0.009
338.15 K | 844.03 ± 3.9 | 0.517 ± 0.009
343.15 K | 841.47 ± 3.9 | 0.486 ± 0.009

CC/C=C\CCOC=O [(Z)-3-hexenyl formate]
Details | mass density [kg/m3] | viscosity [mPa·s]
293.15 K | 909.15 ± 3 | 0.599 ± 0.012
298.15 K | 908.13 ± 3 | 0.561 ± 0.012
303.15 K | 906.6 ± 3.1 | 0.527 ± 0.011
308.15 K | 904.95 ± 3.1 | 0.496 ± 0.011
313.15 K | 903.17 ± 3.1 | 0.469 ± 0.011
318.15 K | 901.19 ± 3.1 | 0.443 ± 0.01
323.15 K | 898.99 ± 3.2 | 0.421 ± 0.01
328.15 K | 896.72 ± 3.2 | 0.4 ± 0.01
333.15 K | 894.16 ± 3.3 | 0.38 ± 0.01
338.15 K | 891.54 ± 3.3 | 0.363 ± 0.01
343.15 K | 888.73 ± 3.3 | 0.346 ± 0.01

CCCCCCOC(C)=O [hexyl ethanoate]
Details | mass density [kg/m3] | viscosity [mPa·s]
293.15 K | 872.9 ± 3.4 | 1.118 ± 0.013
298.15 K | 867.3 ± 3.5 | 1.036 ± 0.012
303.15 K | 862.6 ± 3.6 | 0.962 ± 0.012
308.15 K | 858.33 ± 3.6 | 0.895 ± 0.011
313.15 K | 854.9 ± 3.7 | 0.836 ± 0.011
318.15 K | 848.84 ± 3.8 | 0.782 ± 0.011
323.15 K | 844.21 ± 3.9 | 0.733 ± 0.01
328.15 K | 839.64 ± 4 | 0.689 ± 0.01
333.15 K | 835.15 ± 4 | 0.649 ± 0.01
338.15 K | 831.4 ± 4.1 | 0.612 ± 0.01
343.15 K | 826.3 ± 4.2 | 0.579 ± 0.01
